Experimental data: patent US9914747B2 (priority 2014, dated 2018)

Tested on: recombinant NL4-3 virus (NLRluc, Renilla luciferase in nef, Gag P373S)
Test: HIV Cell Culture Assay (luciferase reporter virus in MT-2 cells)
Type: cell-based
Conditions: NL43, read-out: WT EC50
Description: MT-2 cells and 293T cells were obtained from the NIH AIDS Research and Reference Reagent Program. MT-2 cells were propagated in RPMI 1640 media supplemented with 10% heat inactivated fetal bovine serum, […]. The 293T cells were propagated in DMEM media supplemented with 10% heat inactivated fetal bovine serum (FBS), 100 units/mL penicillin G and 100 μg/mL streptomycin. The proviral DNA clone of NL4-3 was obtained from the NIH AIDS Research and Reference Reagent Program. A recombinant NL4-3 virus, in which a section of the nef gene from NL4-3 was replaced with the Renilla luciferase gene, was used as a reference virus. In addition, residue Gag P373 was converted to P373S. Briefly, the recombinant virus was prepared by transfection of the altered proviral clone of NL4-3. Transfections were performed in 293T cells using LipofectAMINE PLUS from Invitrogen (Carlsbad, Calif.), according to manufacturer's instruction. The virus was titered in MT-2 cells using luciferase enzyme activity as a marker. Luciferase was quantitated using the Dual Luciferase kit from Promega (Madison, Wis.), with modifications to the manufacturer's protocol. The diluted Passive Lysis solution was pre-mixed with the re-suspended Luciferase Assay Reagent and the re-suspended Stop & Glo Substrate (2:1:1 ratio). Fifty (50) […] of the mixture was added to each aspirated well on assay plates and luciferase activity was measured immediately on a Wallac TriLux (Perkin-Elmer). Antiviral activities of inhibitors toward the recombinant virus were quantified by measuring luciferase activity in cells infected for 4-5 days with NLRluc recombinants in the presence serial dilutions of the inhibitor. Biological Data Key for EC50

Row | Compound | EC50
1 | CC(C)[C@@H]1CC[C@]2(C(O)CNCCN(C)C)CC[C@]3(C)[C@H](CC[C@@H]4[C@@]5(C)CC=C(C6=CC[C@](CF)(C(=O)O)CC6)C(C)(C)[C@@H]5CC[C@]43C)[C@@H]12 (single isomer, unassigned) [Example 14] | < 100 nM
2 | CC(C)[C@@H]1CC[C@]2([C@H](O)CN(CCN(C)C)Cc3ccc(Cl)cc3)CC[C@]3(C)[C@H](CC[C@@H]4[C@@]5(C)CC=C(C6=CC[C@](CF)(C(=O)O)CC6)C(C)(C)[C@@H]5CC[C@]43C)[C@@H]12 (single isomer, unassigned) [Example 15] | < 100 nM
3 | CC(C)[C@@H]1CC[C@]2([C@@H](O)CN(CCN(C)C)Cc3ccc(Cl)cc3)CC[C@]3(C)[C@H](CC[C@@H]4[C@@]5(C)CC=C(C6=CC[C@](CF)(C(=O)O)CC6)C(C)(C)[C@@H]5CC[C@]43C)[C@@H]12 (single isomer, unassigned) [Example 16] | 130 nM
4 | C=C(C)[C@@H]1CC[C@]2(/C=C/C(=O)O)CC[C@]3(C)[C@H](CC[C@@H]4[C@@]5(C)CC=C(c6ccc(C(=O)O)cc6)C(C)(C)[C@@H]5CC[C@]43C)[C@@H]12 [Example 1, 4-((1R,3aR,5aR,5bR,7aR,11aS,11bR,13aR,13bR)-3a-((E)-2-carboxyvinyl)-5a,5b,8,8,8,11a-pentamethyl-1-(prop-1-en-2-yl)-2,3,3a,4,5,5a,5b,6,7,7a,8,11,11a,11b,12,13,13a,13b-octadecahydro-1H-cyclopenta[a]chrysen-9-yl)benzoic acid] | 20 nM
5 | C=C(C)[C@@H]1CC[C@]2(/C=C/C(=O)NCCN(C)C)CC[C@]3(C)[C@H](CC[C@@H]4[C@@]5(C)CC=C(c6ccc(C(=O)O)cc6)C(C)(C)[C@@H]5CC[C@]43C)[C@@H]12 [Example 2, 4-((1R,3aR,5aR,5bR,7aR,11aS,11bR,13aR,13bR)-3a-((E)-3-((2-(dimethylamino)ethyl)amino)-3-oxoprop-1-en-1-yl)-5a,5b,8,8,11a-pentamethyl-1-(prop-1-en-2-yl)-2,3,3a,4,5,5a,5b,6,7,7a,8,11,11a,11b,12,13,13a,13b-octadecahydro-1H-cyclopenta[a]chrysen-9-yl)benzoic acid] | > 100 nM
6 | C=C(C)[C@@H]1CC[C@]2(/C=C/C(=O)N3CCS(=O)(=O)CC3)CC[C@]3(C)[C@H](CC[C@@H]4[C@@]5(C)CC=C(c6ccc(C(=O)O)cc6)C(C)(C)[C@@H]5CC[C@]43C)[C@@H]12 [Example 3, 4-((1R,3aR,5aR,5bR,7aR,11aS,11bR,13aR,13bR)-3a-((E)-3-(1,1-dioxidothiomorpholino)-3-oxoprop-1-en-1-yl)-5a,5b,8,8,11a-pentamethyl-1-(prop-1-en-2-yl)-2,3,3a,4,5,5a,5b,6,7,7a,8,11,11a,11b,12,13,13a,13b-octadecahydro-1H-cyclopenta[a]chrysen-9-yl)benzoic acid] | < 100 nM
7 | C=C(C)[C@@H]1CC[C@]2(/C=C/C(=O)NCCCN3CCS(=O)(=O)CC3)CC[C@]3(C)[C@H](CC[C@@H]4[C@@]5(C)CC=C(c6ccc(C(=O)O)cc6)C(C)(C)[C@@H]5CC[C@]43C)[C@@H]12 [Example 4, 4-((1R,3aR,5aR,5bR,7aR,11aS,11bR,13aR,13bR)-3a-((E)-3-((3-(1,1-dioxidothiomorpholino)propyl)amino)-3-oxoprop-1-en-1-yl)-5a,5b,8,8,11a-pentamethyl-1-(prop-1-en-2-yl)-2,3,3a,4,5,5a,5b,6,7,7a,8,11,11a,11b,12,13,13a,13b-octadecahydro-1H-cyclopenta[a]chrysen-9-yl)benzoic acid] | > 100 nM
8 | C=C(C)[C@@H]1CC[C@]2(/C=C/C(=O)N(C)OC)CC[C@]3(C)[C@H](CC[C@@H]4[C@@]5(C)CC=C(c6ccc(C(=O)O)cc6)C(C)(C)[C@@H]5CC[C@]43C)[C@@H]12 [Example 5, 4-((1R,3aR,5aR,5bR,7aR,11aS,11bR,13aR,13bR)-3a-((E)-3-(methoxy(methyl)amino)-3-oxoprop-1-en-1-yl)-5a,5b,8,8,11a-pentamethyl-1-(prop-1-en-2-yl)-2,3,3a,4,5,5a,5b,6,7,7a,8,11,11a,11b,12,13,13a,13b-octadecahydro-1H-cyclopenta[a]chrysen-9-yl)benzoic acid] | < 100 nM
9 | C=C(C)[C@@H]1CC[C@]2(/C=C/CN3CCS(=O)(=O)CC3)CC[C@]3(C)[C@H](CC[C@@H]4[C@@]5(C)CC=C(c6ccc(C(=O)O)cc6)C(C)(C)[C@@H]5CC[C@]43C)[C@@H]12 [Example 6, 4-((1R,3aR,5aR,5bR,7aR,11aS,11bR,13aR,13bR)-3a-((E)-3-(1,1-dioxidothiomorpholino)prop-1-en-1-yl)-5a,5b,8,8,11a-pentamethyl-1-(prop-1-en-2-yl)-2,3,3a,4,5,5a,5b,6,7,7a,8,11,11a,11b,12,13,13a,13b-octadecahydro-1H-cyclopenta[a]chrysen-9-yl)benzoic acid] | < 100 nM
10 | C=C(C)[C@@H]1CC[C@]2(CCC(=O)N3CCS(=O)(=O)CC3)CC[C@]3(C)[C@H](CC[C@@H]4[C@@]5(C)CC=C(c6ccc(C(=O)O)cc6)C(C)(C)[C@@H]5CC[C@]43C)[C@@H]12 [Example 7, 4-((1R,3aR,5aR,5bR,7aR,11aS,11bR,13aR,13bR)-3a-(3-(1,1-dioxidothiomorpholino)-3-oxopropyl)-5a,5b,8,8,11a-pentamethyl-1-(prop-1-en-2-yl)-2,3,3a,4,5,5a,5b,6,7,7a,8,11,11a,11b,12,13,13a,13b-octadecahydro-1H-cyclopenta[a]chrysen-9-yl)benzoic acid] | 5.66 nM
11 | C=C(C)[C@@H]1CC[C@]2(C(=O)C(=O)NCCCN3CCS(=O)(=O)CC3)CC[C@]3(C)[C@H](CC[C@@H]4[C@@]5(C)CC=C(c6ccc(C(=O)O)cc6)C(C)(C)[C@@H]5CC[C@]43C)[C@@H]12 [Example 8, 4-((1R,3aS,5aR,5bR,7aR,11aS,11bR,13aR,13bR)-3a-(2-((3-(1,1-dioxidothiomorpholino)propyl)amino)-2-oxoacetyl)-5a,5b,8,8,11a-pentamethyl-1-(prop-1-en-2-yl)-2,3,3a,4,5,5a,5b,6,7,7a,8,11,11a,11b,12,13,13a,13b-octadecahydro-1H-cyclopenta[a]chrysen-9-yl)benzoic acid] | < 100 nM
12 | C=C(C)[C@@H]1CC[C@]2(C(=O)C(=O)NCCN3CCS(=O)(=O)CC3)CC[C@]3(C)[C@H](CC[C@@H]4[C@@]5(C)CC=C(c6ccc(C(=O)O)cc6)C(C)(C)[C@@H]5CC[C@]43C)[C@@H]12 [Example 9, 4-((1R,3aS,5aR,5bR,7aR,11aS,11bR,13aR,13bR)-3a-(2-((2-(1,1-dioxidothiomorpholino)ethyl)amino)-2-oxoacetyl)-5a,5b,8,8,11a-pentamethyl-1-(prop-1-en-2-yl)-2,3,3a,4,5,5a,5b,6,7,7a,8,11,11a,11b, 12,13,13a,13b-octadecahydro-1H-cyclopenta[a]chrysen-9-yl)benzoic acid] | < 100 nM
13 | C=C(C)[C@@H]1CC[C@]2(CCN3CCS(=O)(=O)CC3)CC[C@]3(C)[C@H](CC[C@@H]4[C@@]5(C)CC=C(c6ccc(C(=O)O)cc6)C(C)(C)[C@@H]5CC[C@]43C)[C@@H]12 [Example 10, 4-((1R,3aR,5aR,5bR,7aR,11aS,11bR,13aR,13bR)-3a-(2-(1,1-dioxidothiomorpholino)ethyl)-5a,5b,8,8,11a-pentamethyl-1-(prop-1-en-2-yl)-2,3,3a,4,5,5a,5b,6,7,7a,8,11,11a,11b,12,13,13a,13b-octadecahydro-1H-cyclopenta[a]chrysen-9-yl)benzoic acid] | < 100 nM
14 | C=C(C)[C@@H]1CC[C@]2(CCNCCN3CCS(=O)(=O)CC3)CC[C@]3(C)[C@H](CC[C@@H]4[C@@]5(C)CC=C(c6ccc(C(=O)O)cc6)C(C)(C)[C@@H]5CC[C@]43C)[C@@H]12 [Example 11, 4-((1R,3aR,5aR,5bR,7aR,11aS,11bR,13aR,13bR)-3a-(2-((2-(1,1-dioxidothiomorpholino)ethyl)amino)ethyl)-5a,5b,8,8,11a-pentamethyl-1-(prop-1-en-2-yl)-2,3,3a,4,5,5a,5b,6,7,7a,8,11,11a,11b,12,13,13a,13b-octadecahydro-1H-cyclopenta[a]chrysen-9-yl)benzoic acid] | 1.24 nM
15 | C=C(C)[C@@H]1CC[C@]2(CCN(C)CCN3CCS(=O)(=O)CC3)CC[C@]3(C)[C@H](CC[C@@H]4[C@@]5(C)CC=C(c6ccc(C(=O)O)cc6)C(C)(C)[C@@H]5CC[C@]43C)[C@@H]12 [Example 12, 4-((1R,3aR,5aR,5bR,7aR,11aS,11bR,13aR,13bR)-3a-(2-((2-(1,1-dioxidothiomorpholino)ethyl)(methyl)amino)ethyl)-5a,5b,8,8,11a-pentamethyl-1-(prop-1-en-2-yl)-2,3,3a,4,5,5a,5b,6,7,7a,8,11,11a,11b,12,13,13a,13b-octadecahydro-1H-cyclopenta[a]chrysen-9-yl)benzoic acid] | < 100 nM
